# Results published in patent US20080026996A1, “Selective Vpac2 Receptor Reptide Agonists” (ELI LILLY AND COMPANY, priority 2004, published 2008).
# pEC50, pIC50: −log10 of the molar value. Where no end group is shown, it is not given here. The star is where a group is joined. Hexanoyl = CCCCCC(=O)*
# Biological target: T1, human VPAC2 (Homo sapiens, UniProt P41587)
# T1 construct: expressed in transfected cells
# T1 sequence (P41587 24-438): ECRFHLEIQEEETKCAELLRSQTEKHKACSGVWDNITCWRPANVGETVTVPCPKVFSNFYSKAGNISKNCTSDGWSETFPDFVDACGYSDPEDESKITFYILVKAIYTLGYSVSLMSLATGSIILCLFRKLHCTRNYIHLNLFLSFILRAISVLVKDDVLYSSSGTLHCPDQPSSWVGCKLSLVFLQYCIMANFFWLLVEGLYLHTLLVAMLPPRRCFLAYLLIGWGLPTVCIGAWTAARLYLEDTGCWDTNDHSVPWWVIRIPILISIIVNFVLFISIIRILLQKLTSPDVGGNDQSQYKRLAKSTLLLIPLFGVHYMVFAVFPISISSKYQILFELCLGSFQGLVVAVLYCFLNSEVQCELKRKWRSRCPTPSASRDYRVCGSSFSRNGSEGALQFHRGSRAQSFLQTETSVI
# Experiment: Alpha screen cAMP in vitro potency, human VPAC2 receptor
# Assay type: cell-based
# Conditions: cAMP generation; single result from two analyses performed in a single run; read-out: Human VPAC2 Receptor: Alpha Screen EC50
# How it was run: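 Dissociated cells, 50,000 per point in stimulation buffer, were incubated with stimuli and AlphaScreen acceptor beads for 60 min.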
row,Substance,pEC50
1,Hexanoyl-HSDAVFTDNYTRLRKQLAAKKYLQSIKNKRYGGPSSGAPPPS [Agonist P290],9.66
2,Hexanoyl-HSDAVFTDNYTRLRKQVAAAKYLQSIKNKRYGGPSSGAPPPS [Agonist P181],9.89
3,Hexanoyl-HSDAVFTDNYTRLRKQVAAFKYLQSIKNKRYGGPSSGAPPPS [Agonist P148],10.00
4,Hexanoyl-HSDAVFTDNYTRLRKQVAAIKYLQSIKNKRYGGPSSGAPPPS [Agonist P149],9.39
5,Hexanoyl-HSDAVFTDNYTRLRKQVAAKAYLQSIKNKRYGGPSSGAPPPS [Agonist P184],9.66
6,Hexanoyl-HSDAVFTDNYTRLRKQVAAKFYLQSIKNKRYGGPSSGAPPPS [Agonist P186],9.82
7,Hexanoyl-HSDAVFTDNYTRLRKQVAAKKYAQSIKNKRYGGPSSGAPPPS [Agonist P235],9.09

# Biological target: T2, human VPAC1 (Homo sapiens, UniProt P32241)
# T2 sequence (P32241 31-457): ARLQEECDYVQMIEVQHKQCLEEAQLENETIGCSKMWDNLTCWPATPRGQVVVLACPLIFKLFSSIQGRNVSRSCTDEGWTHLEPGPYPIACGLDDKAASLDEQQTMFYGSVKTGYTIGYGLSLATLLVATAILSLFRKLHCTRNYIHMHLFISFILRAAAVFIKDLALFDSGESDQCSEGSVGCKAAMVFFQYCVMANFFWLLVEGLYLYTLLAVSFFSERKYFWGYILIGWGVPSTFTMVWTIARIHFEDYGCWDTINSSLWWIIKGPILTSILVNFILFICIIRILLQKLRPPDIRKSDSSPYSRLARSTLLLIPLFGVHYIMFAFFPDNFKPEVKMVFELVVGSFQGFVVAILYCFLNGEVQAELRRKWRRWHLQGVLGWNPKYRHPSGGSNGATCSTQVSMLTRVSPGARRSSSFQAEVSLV
# Experiment: Filter binding assay, membranes of cells transiently transfected with human VPAC1, 125I-labeled VIP tracer (Table 2)
# Design: expressed in transfected cells
# Conditions: read-out: Human VPAC1 Receptor Binding
# How it was run: (§1)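 Membranes 2.5 μg/well; tracer ~40000 cpm; buffer 25 mM HEPES pH 7.4, 0.5% protease-free BSA; 1 h incubation, shaking. Glass-fibre filtration (0.5% polyethyleneamine presoak, 0.2% BSA block), 3× HEPES wash, dry 1 h at 60° C, scintillation count.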
row,Substance,pIC50
1,Hexanoyl-HSDAVFTDNYTRLRKQLAAKKYLQSIKNKRYGGPSSGAPPPS [Agonist P290],6.66
2,Hexanoyl-HSDAVFTDNYTRLRKQVAAAKYLQSIKNKRYGGPSSGAPPPS [Agonist P181],6.49
3,Hexanoyl-HSDAVFTDNYTRLRKQVAAFKYLQSIKNKRYGGPSSGAPPPS [Agonist P148],6.61
4,Hexanoyl-HSDAVFTDNYTRLRKQVAAIKYLQSIKNKRYGGPSSGAPPPS [Agonist P149],6.67
5,Hexanoyl-HSDAVFTDNYTRLRKQVAAKAYLQSIKNKRYGGPSSGAPPPS [Agonist P184],6.49
6,Hexanoyl-HSDAVFTDNYTRLRKQVAAKFYLQSIKNKRYGGPSSGAPPPS [Agonist P186],6.08
7,Hexanoyl-HSDAVFTDNYTRLRKQVAAKKYAQSIKNKRYGGPSSGAPPPS [Agonist P235],5.87

# Biological target: T3, human PAC1 (Homo sapiens, UniProt P41586)
# T3 sequence (P41586 21-468): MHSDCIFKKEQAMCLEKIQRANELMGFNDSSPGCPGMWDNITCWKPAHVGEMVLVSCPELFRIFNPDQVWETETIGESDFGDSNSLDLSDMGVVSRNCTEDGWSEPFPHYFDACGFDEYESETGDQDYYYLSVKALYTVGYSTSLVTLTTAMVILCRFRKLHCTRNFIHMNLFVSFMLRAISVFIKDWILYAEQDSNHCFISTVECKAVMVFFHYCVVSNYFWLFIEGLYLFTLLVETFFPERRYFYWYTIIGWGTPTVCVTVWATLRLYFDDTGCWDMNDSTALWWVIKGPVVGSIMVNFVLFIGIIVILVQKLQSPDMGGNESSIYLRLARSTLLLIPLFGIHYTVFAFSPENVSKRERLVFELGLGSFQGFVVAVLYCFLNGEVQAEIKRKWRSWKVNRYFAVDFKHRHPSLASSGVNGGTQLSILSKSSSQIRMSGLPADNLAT
# Experiment: Filter binding assay, membranes of cells transiently transfected with human PAC1, 125I-labeled PACAP-27 tracer (Table 2)
# Design: expressed in transfected cells
# Conditions: read-out: Human PAC1 Receptor Binding
# How it was run: as §1
row,Substance,pIC50
1,Hexanoyl-HSDAVFTDNYTRLRKQLAAKKYLQSIKNKRYGGPSSGAPPPS [Agonist P290],6.68
2,Hexanoyl-HSDAVFTDNYTRLRKQVAAAKYLQSIKNKRYGGPSSGAPPPS [Agonist P181],6.28
3,Hexanoyl-HSDAVFTDNYTRLRKQVAAFKYLQSIKNKRYGGPSSGAPPPS [Agonist P148],6.00
4,Hexanoyl-HSDAVFTDNYTRLRKQVAAIKYLQSIKNKRYGGPSSGAPPPS [Agonist P149],6.11
5,Hexanoyl-HSDAVFTDNYTRLRKQVAAKAYLQSIKNKRYGGPSSGAPPPS [Agonist P184],6.47
6,Hexanoyl-HSDAVFTDNYTRLRKQVAAKFYLQSIKNKRYGGPSSGAPPPS [Agonist P186],6.50
7,Hexanoyl-HSDAVFTDNYTRLRKQVAAKKYAQSIKNKRYGGPSSGAPPPS [Agonist P235],5.95

# Biological target: T1, human VPAC2
# Experiment: Filter binding assay, membranes of stable VPAC2 cell line, 125I-labeled VIP tracer (Table 2)
# Conditions: read-out: Human VPAC2 Receptor Binding
# How it was run: as §1
row,Substance,pIC50
1,Hexanoyl-HSDAVFTDNYTRLRKQLAAKKYLQSIKNKRYGGPSSGAPPPS [Agonist P290],9.57
2,Hexanoyl-HSDAVFTDNYTRLRKQVAAAKYLQSIKNKRYGGPSSGAPPPS [Agonist P181],9.54
3,Hexanoyl-HSDAVFTDNYTRLRKQVAAFKYLQSIKNKRYGGPSSGAPPPS [Agonist P148],9.11
4,Hexanoyl-HSDAVFTDNYTRLRKQVAAIKYLQSIKNKRYGGPSSGAPPPS [Agonist P149],9.21
5,Hexanoyl-HSDAVFTDNYTRLRKQVAAKAYLQSIKNKRYGGPSSGAPPPS [Agonist P184],9.64
6,Hexanoyl-HSDAVFTDNYTRLRKQVAAKFYLQSIKNKRYGGPSSGAPPPS [Agonist P186],9.06
7,Hexanoyl-HSDAVFTDNYTRLRKQVAAKKYAQSIKNKRYGGPSSGAPPPS [Agonist P235],8.83

# Test system: not listed separately
# Experiment: Rat serum stability studies (remaining active peptide by DiscoveRx cAMP on CHO-VPAC2 cells)
# Assay type: in vitro ADME
# Conditions: not given
# How it was run: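 EC50 from a DiscoveRx cAMP read-out on CHO-VPAC2 cells indexes how much peptide stays active after 18 h in rat serum at 37° C without aprotinin, against an aprotinin-protected 4° C aliquot.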
row,Substance,Rat Serum Stability (estimated purity in % after 18 hours) [%]
1,Hexanoyl-HSDAVFTDNYTRLRKQLAAKKYLQSIKNKRYGGPSSGAPPPS [Agonist P290],0.11
2,Hexanoyl-HSDAVFTDNYTRLRKQVAAAKYLQSIKNKRYGGPSSGAPPPS [Agonist P181],<0.53
3,Hexanoyl-HSDAVFTDNYTRLRKQVAAFKYLQSIKNKRYGGPSSGAPPPS [Agonist P148],<0.10
4,Hexanoyl-HSDAVFTDNYTRLRKQVAAIKYLQSIKNKRYGGPSSGAPPPS [Agonist P149],0.29
5,Hexanoyl-HSDAVFTDNYTRLRKQVAAKAYLQSIKNKRYGGPSSGAPPPS [Agonist P184],0.29
6,Hexanoyl-HSDAVFTDNYTRLRKQVAAKFYLQSIKNKRYGGPSSGAPPPS [Agonist P186],0.25
7,Hexanoyl-HSDAVFTDNYTRLRKQVAAKKYAQSIKNKRYGGPSSGAPPPS [Agonist P235],2.62
